The target in the assay is adult mouse muscle nAChR subtype (α1β1εδ) (Mus musculus, UniProt P02716+P04756+P20782). Kind of assay: cell-based.

Each structure is given as a SMILES string. Bridge positions count the residues as written; N and C are the ends. Peptide text beside a SMILES is read from it.

Sequence of adult mouse muscle nAChR subtype (α1β1εδ) (P02716 whole entry, looked up): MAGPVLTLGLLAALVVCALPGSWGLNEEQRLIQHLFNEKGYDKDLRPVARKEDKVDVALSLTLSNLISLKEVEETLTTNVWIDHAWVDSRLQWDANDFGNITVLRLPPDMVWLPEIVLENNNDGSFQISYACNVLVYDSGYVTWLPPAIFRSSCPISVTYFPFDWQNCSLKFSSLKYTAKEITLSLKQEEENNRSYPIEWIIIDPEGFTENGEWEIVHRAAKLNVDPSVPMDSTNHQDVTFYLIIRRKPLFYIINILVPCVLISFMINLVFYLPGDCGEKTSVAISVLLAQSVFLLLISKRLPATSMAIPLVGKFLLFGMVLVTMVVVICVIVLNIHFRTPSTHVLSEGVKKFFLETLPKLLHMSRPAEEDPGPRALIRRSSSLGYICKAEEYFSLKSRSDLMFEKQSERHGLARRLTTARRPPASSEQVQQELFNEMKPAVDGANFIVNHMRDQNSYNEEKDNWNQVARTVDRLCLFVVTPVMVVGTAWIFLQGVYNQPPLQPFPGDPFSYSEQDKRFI
Sequence of adult mouse muscle nAChR subtype (α1β1εδ) (P04756 whole entry, looked up): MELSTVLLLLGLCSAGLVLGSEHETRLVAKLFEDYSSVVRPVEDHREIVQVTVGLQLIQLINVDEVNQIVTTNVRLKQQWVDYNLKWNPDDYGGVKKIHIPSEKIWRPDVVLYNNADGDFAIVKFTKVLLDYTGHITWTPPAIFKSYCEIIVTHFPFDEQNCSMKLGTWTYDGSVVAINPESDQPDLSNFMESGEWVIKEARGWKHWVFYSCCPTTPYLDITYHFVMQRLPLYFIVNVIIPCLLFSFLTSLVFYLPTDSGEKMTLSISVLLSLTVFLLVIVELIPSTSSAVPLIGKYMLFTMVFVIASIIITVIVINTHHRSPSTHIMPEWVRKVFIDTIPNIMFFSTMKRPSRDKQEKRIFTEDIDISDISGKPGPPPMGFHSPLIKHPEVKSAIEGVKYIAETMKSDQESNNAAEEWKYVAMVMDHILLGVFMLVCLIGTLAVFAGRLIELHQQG
Sequence of adult mouse muscle nAChR subtype (α1β1εδ) (P20782 whole entry, looked up): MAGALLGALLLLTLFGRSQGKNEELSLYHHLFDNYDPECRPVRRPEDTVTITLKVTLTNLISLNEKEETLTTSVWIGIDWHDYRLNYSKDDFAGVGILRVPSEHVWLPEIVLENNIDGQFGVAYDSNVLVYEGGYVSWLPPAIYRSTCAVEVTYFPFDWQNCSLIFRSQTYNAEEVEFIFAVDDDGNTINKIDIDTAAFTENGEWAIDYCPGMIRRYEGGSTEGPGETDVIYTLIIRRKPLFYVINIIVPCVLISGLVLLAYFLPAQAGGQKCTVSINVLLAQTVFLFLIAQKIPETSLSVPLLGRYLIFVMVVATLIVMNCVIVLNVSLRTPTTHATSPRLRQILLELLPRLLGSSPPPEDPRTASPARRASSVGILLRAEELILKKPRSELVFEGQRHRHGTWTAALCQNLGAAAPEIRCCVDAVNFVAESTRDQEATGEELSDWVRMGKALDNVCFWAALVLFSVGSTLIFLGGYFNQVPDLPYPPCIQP

Broadly, the IC50 is the midpoint of a concentration-inhibition curve. Read a high IC50 as lower potency. With `CC[C@H](C)[C@@H]1NC(=O)CNC(=O)[C@H](C)NC(=O)[C@H](CCCNC(=N)N)NC(=O)[C@@H]2CSSC[C@@H](C(=O)N[C@@H](CCCNC(=N)N)C(N)=O)NC(=O)[C@H](Cc3c[nH]cn3)NC(=O)[C@H](CSSC[C@H](NC(=O)[C@@H](NC(=O)[C@H](CCCNC(=N)N)NC(=O)[C@@H]3CCCN3C(=O)[C@H](CCCNC(=N)N)NC(=O)[C@@H]3CCCN3C(=O)[C@@H](N)Cc3ccccc3)[C@@H](C)CC)C(=O)N[C@@H](CC(N)=O)C(=O)N[C@@H](CC(C)C)C(=O)N[C@@H](C)C(=O)N2)NC(=O)[C@H](Cc2ccccc2)NC(=O)[C@@H]2CCCN2C(=O)[C@H](Cc2ccc(O)cc2)NC(=O)[C@H](CCCCN)NC(=O)[C@H](Cc2c[nH]cn2)NC(=O)CNC1=O` [pl14a] (H-FPRPRICNLACRAGIGHKYPFCHCR-NH2; disulfide 7-22, 11-24), half-maximal inhibition (IC50) required 507 nM.

The values above are taken from patent publication US9062118B2 (priority 2006, dated 2015).
